{"source": "ChEMBL document CHEMBL1201862", "about": "“PubChem BioAssay data set” (2004)", "assay_in_all_cases": "inhibition of tumour cell growth, NCI panel, 48 h", "key": {"A498": {"test_system": "A498"}, "SK-MEL-28": {"test_system": "SK-MEL-28"}, "M14": {"test_system": "M14"}, "DU-145": {"test_system": "DU-145"}, "HOP-92": {"test_system": "HOP-92"}, "K562": {"test_system": "K562"}, "ACHN": {"test_system": "ACHN"}, "SW-620": {"test_system": "SW-620"}, "TK-10": {"test_system": "TK-10"}, "SF-268": {"test_system": "SF-268"}, "HOP-62": {"test_system": "HOP-62"}, "SNB-19": {"test_system": "SNB-19"}, "OVCAR-4": {"test_system": "OVCAR-4"}, "MDA-MB-435": {"test_system": "MDA-MB-435"}, "NCI-H226": {"test_system": "NCI-H226"}, "786-0": {"test_system": "786-0"}, "UACC-62": {"test_system": "UACC-62"}, "SR": {"test_system": "SR"}, "MDA-MB-231": {"test_system": "MDA-MB-231"}, "KM12": {"test_system": "KM12"}, "U-251": {"test_system": "U-251"}, "SF-539": {"test_system": "SF-539"}, "OVCAR-5": {"test_system": "OVCAR-5"}, "HCC 2998": {"test_system": "HCC 2998"}, "OVCAR-3": {"test_system": "OVCAR-3"}, "SF-295": {"test_system": "SF-295"}, "SK-MEL-5": {"test_system": "SK-MEL-5"}, "MOLT-4": {"test_system": "MOLT-4"}, "SK-OV-3": {"test_system": "SK-OV-3"}, "Malme-3M": {"test_system": "Malme-3M"}, "LOX IMVI": {"test_system": "LOX IMVI"}, "NCI-H522": {"test_system": "NCI-H522"}, "Hs-578T": {"test_system": "Hs-578T"}, "CCRF-CEM": {"test_system": "CCRF-CEM"}, "RXF 393": {"test_system": "RXF 393"}, "COLO 205": {"test_system": "COLO 205"}, "SNB-75": {"test_system": "SNB-75"}, "PC-3": {"test_system": "PC-3"}, "HCT-116": {"test_system": "HCT-116"}, "NCI-H460": {"test_system": "NCI-H460"}, "MDA-N": {"test_system": "MDA-N"}, "T47D": {"test_system": "T47D"}, "OVCAR-8": {"test_system": "OVCAR-8"}, "A549": {"test_system": "A549"}, "EKVX": {"test_system": "EKVX"}, "UACC-257": {"test_system": "UACC-257"}, "HCT-15": {"test_system": "HCT-15"}, "MCF7": {"test_system": "MCF7"}, "CAKI-1": {"test_system": "CAKI-1"}, "IGROV-1": {"test_system": "IGROV-1"}, "RPMI-8226": {"test_system": "RPMI-8226"}, "SK-MEL-2": {"test_system": "SK-MEL-2"}, "SN12C": {"test_system": "SN12C"}, "NCI-H23": {"test_system": "NCI-H23"}, "HT-29": {"test_system": "HT-29"}, "NCI/ADR-RES": {"test_system": "NCI/ADR-RES"}, "UO-31": {"test_system": "UO-31"}, "HL-60": {"test_system": "HL-60"}}, "note": "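Where inhibition never reached the appropriate level, the endpoint shown equals the highest concentration tested. Otherwise, values were interpolated linearly from a five-concentration, 48-hour dose response in 96-well plates. GI50 = concentration required for 50% inhibition of growth.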 Active and inactive are the calls of the source. Cut-off read from the data, not from the text of the source: active = GI50 up to about 1.1 µM and inactive = higher.", "data": [{"compound": "COC[C@@H](/N=C/C(C)(C)C)C(C)C", "values": [{"measurement": "GI50", "setting": "A498", "result": "> 100 µM (inactive)"}, {"measurement": "GI50", "setting": "SK-MEL-28", "result": "> 100 µM (inactive)"}, {"measurement": "GI50", "setting": "M14", "result": "> 100 µM (inactive)"}, {"measurement": "GI50", "setting": "DU-145", "result": "> 100 µM (inactive)"}, {"measurement": "GI50", "setting": "HOP-92", "result": "> 100 µM (inactive)"}, {"measurement": "GI50", "setting": "K562", "result": "> 100 µM (inactive)"}, {"measurement": "GI50", "setting": "ACHN", "result": "> 100 µM (inactive)"}, {"measurement": "GI50", "setting": "SW-620", "result": "> 100 µM (inactive)"}, {"measurement": "GI50", "setting": "TK-10", "result": "72.1 µM (inactive)"}, {"measurement": "GI50", "setting": "SF-268", "result": "> 100 µM (inactive)"}, {"measurement": "GI50", "setting": "HOP-62", "result": "> 100 µM (inactive)"}, {"measurement": "GI50", "setting": "SNB-19", "result": "> 100 µM (inactive)"}, {"measurement": "GI50", "setting": "OVCAR-4", "result": "> 100 µM (inactive)"}, {"measurement": "GI50", "setting": "MDA-MB-435", "result": "> 100 µM (inactive)"}, {"measurement": "GI50", "setting": "NCI-H226", "result": "> 100 µM (inactive)"}, {"measurement": "GI50", "setting": "786-0", "result": "> 100 µM (inactive)"}, {"measurement": "GI50", "setting": "UACC-62", "result": "> 100 µM (inactive)"}, {"measurement": "GI50", "setting": "SR", "result": "> 100 µM (inactive)"}, {"measurement": "GI50", "setting": "MDA-MB-231", "result": "> 100 µM (inactive)"}, {"measurement": "GI50", "setting": "KM12", "result": "> 100 µM (inactive)"}, {"measurement": "GI50", "setting": "U-251", "result": "> 100 µM (inactive)"}, {"measurement": "GI50", "setting": "SF-539", "result": "> 100 µM (inactive)"}, {"measurement": "GI50", "setting": "OVCAR-5", "result": "> 100 µM (inactive)"}, {"measurement": "GI50", "setting": "HCC 2998", "result": "> 100 µM (inactive)"}, {"measurement": "GI50", "setting": "OVCAR-3", "result": "> 100 µM (inactive)"}, {"measurement": "GI50", "setting": "SF-295", "result": "> 100 µM (inactive)"}, {"measurement": "GI50", "setting": "SK-MEL-5", "result": "> 100 µM (inactive)"}, {"measurement": "GI50", "setting": "MOLT-4", "result": "> 100 µM (inactive)"}, {"measurement": "GI50", "setting": "SK-OV-3", "result": "> 100 µM (inactive)"}, {"measurement": "GI50", "setting": "Malme-3M", "result": "> 100 µM (inactive)"}, {"measurement": "GI50", "setting": "LOX IMVI", "result": "> 100 µM (inactive)"}, {"measurement": "GI50", "setting": "NCI-H522", "result": "> 100 µM (inactive)"}, {"measurement": "GI50", "setting": "Hs-578T", "result": "> 100 µM (inactive)"}, {"measurement": "GI50", "setting": "CCRF-CEM", "result": "> 100 µM (inactive)"}, {"measurement": "GI50", "setting": "RXF 393", "result": "> 100 µM (inactive)"}, {"measurement": "GI50", "setting": "COLO 205", "result": "> 100 µM (inactive)"}, {"measurement": "GI50", "setting": "SNB-75", "result": "> 100 µM (inactive)"}, {"measurement": "GI50", "setting": "PC-3", "result": "> 100 µM (inactive)"}, {"measurement": "GI50", "setting": "HCT-116", "result": "> 100 µM (inactive)"}, {"measurement": "GI50", "setting": "NCI-H460", "result": "> 100 µM (inactive)"}, {"measurement": "GI50", "setting": "MDA-N", "result": "> 100 µM (inactive)"}, {"measurement": "GI50", "setting": "T47D", "result": "> 100 µM (inactive)"}, {"measurement": "GI50", "setting": "OVCAR-8", "result": "> 100 µM (inactive)"}, {"measurement": "GI50", "setting": "A549", "result": "> 100 µM (inactive)"}, {"measurement": "GI50", "setting": "EKVX", "result": "> 100 µM (inactive)"}, {"measurement": "GI50", "setting": "UACC-257", "result": "67.3 µM (inactive)"}, {"measurement": "GI50", "setting": "HCT-15", "result": "> 100", "unit": "µM"}, {"measurement": "GI50", "setting": "MCF7", "result": "> 100 µM (inactive)"}, {"measurement": "GI50", "setting": "CAKI-1", "result": "> 100 µM (inactive)"}, {"measurement": "GI50", "setting": "IGROV-1", "result": "> 100 µM (inactive)"}, {"measurement": "GI50", "setting": "RPMI-8226", "result": "> 100 µM (inactive)"}, {"measurement": "GI50", "setting": "SK-MEL-2", "result": "> 100 µM (inactive)"}, {"measurement": "GI50", "setting": "SN12C", "result": "> 100 µM (inactive)"}, {"measurement": "GI50", "setting": "NCI-H23", "result": "> 100 µM (inactive)"}, {"measurement": "GI50", "setting": "HT-29", "result": "> 100 µM (inactive)"}, {"measurement": "GI50", "setting": "NCI/ADR-RES", "result": "> 100 µM (inactive)"}, {"measurement": "GI50", "setting": "UO-31", "result": "> 100 µM (inactive)"}, {"measurement": "GI50", "setting": "HL-60", "result": "> 100 µM (inactive)"}]}]}
